Reference: PubChem BioAssay AID2305 (GlaxoSmithKline (GSK), 2010)
“And” between values parts separate entries of the source, which are not always exact repeats. Equal values may be shown once.

test system: P. falciparum 3D7 growth, pLDH absorbance; assay: P. falciparum 3D7 growth inhibition, dose response, strain 3D7 (AID 2305)

In order of rising IC50:
1. CN(C)Cc1cc(Nc2ccnc3cc(Cl)ccc23)ccc1O  0.01 µM
2. Fc1ccc(Nc2ccnc3cc(-c4cccc(CN5CCCCC5)c4)ccc23)c(Cl)c1  0.03 µM
3. Cn1c(=N)n(CC(=O)OCc2ccc(OCc3ccccc3)cc2)c2ccccc21  0.08 µM
4. Cc1nnsc1C(=O)Nc1cccc(-c2ccc(-c3nc4ccc(F)cc4[nH]3)cc2)c1  0.1 µM
5. Nc1nc(N)c2c(ccc3c2ccn3C2CCCCC2)n1  0.12 µM
6. Cc1nc(C)c(-c2ccc(Oc3ccc(OC(F)(F)F)cc3)cc2)c(OC(=O)c2ccc(CN(C)C)cc2)c1Cl  0.14 µM
7. NC(=O)c1cnc2ccc(-c3cncs3)cc2c1Nc1ccc(F)c(Cl)c1  0.18 µM
8. Cc1cc(C(=O)Nc2ccc3c(c2)CCN3C2CCN(Cc3cccc4cc[nH]c34)C2)no1 (stereo not given)  0.19 µM
9. CN(C)CCN1CCN(Cc2ccc(-c3cccc(-c4nc5ccccc5[nH]4)c3)cc2)CC1  0.2 µM
10. C#CCN(Cc1ccc2nc(N)[nH]c(=O)c2c1)c1ccc(C(=O)N[C@@H](CCC(=O)O)C(=O)O)cc1  0.22 µM
11. O=C(Nc1ccc(F)cc1)NC1CCN(c2ccnc3cc(Cl)ccc23)C1 (stereo not given)  0.22 µM
12. CC(=O)Nc1nc(-c2ccccc2)[nH]c1C(N)=O  0.25 µM
13. Cc1[nH]cnc1CSCCNC(N)=NCCCCCCCCN=C(N)NCCSCc1nc[nH]c1C  0.27 µM
14. CCc1nc2nc(C)cc(Nc3cc(C)cc(C)c3)n2n1  0.29 µM
15. CNc1ccc(CNCc2cccc(-c3ccc(-c4nc5ccccc5[nH]4)cc3)c2)cc1  0.3 µM
16. Cc1[nH]c2cc(Cl)ccc2c1C1=CCN(CCCCC2(C)C(=O)Nc3ccccc32)CC1 (stereo not given)  0.33 µM
17. C=CCOc1ccccc1CNCC(O)c1cc(Br)cs1 (stereo not given)  0.33 µM
18. O=C(Nc1cccc(CN2CCN(C(=O)c3cccc(Cl)c3)CC2)c1)c1ccco1  0.44 µM
19. COc1ccc(NC(=O)Nc2cccc(-c3ccc(-c4nc5ccc(C(F)(F)F)cc5[nH]4)cc3)c2)cc1  0.45 µM
20. CC(=O)Nc1cc(C(=O)Nc2cccc(-c3csc(-c4nc5ccccc5[nH]4)c3)c2)ccc1C  0.46 µM
21. Cc1cccc2[nH]c(-c3cccc(-c4cccc(NC(=O)c5cn(C)c(=O)n5C)c4)c3)nc12  0.5 µM
22. CCCCCNc1ccnc2cc(Cl)ccc12  0.51 µM
23. C=Cc1ccccc1C1(O)CCN(CCCCNC(=O)c2ccc(-c3ccc(C#N)cc3)cc2)CC1  0.52 µM
24. COc1ccc2ncc(C)c(CCN3CCC(NCc4ccc5c(n4)NC(=O)CS5)CC3)c2c1  0.55 µM
25. N#Cc1cccc(Nc2nccc(NCC(O)c3cccc(C(F)(F)F)c3)n2)c1 (stereo not given)  0.55 µM
26. COc1cc(NC(=O)c2nn(CCCN3CCC(N4CCCC4)CC3)cc2-c2ccc(Cl)c(Cl)c2)cc(OC)c1OC  0.56 µM
27. C=CCNC(CCCCC)c1ccc(OCCOc2ccc(C(CCCCC)NCC=C)cc2)cc1 (stereo not given)  0.57 µM
28. C#Cc1cccc(NC(=O)[C@H](CC2CCCCC2)Nc2ccc(C#N)c3ccccc23)c1  0.59 µM
29. CC(C)(C)C(C)(C)Cc1ccc(O)c(CN2CCN(c3ccccc3)CC2)c1  0.6 µM
30. CC(=O)Oc1c(C2C=CCCC2)c(OC(C)=O)c2ccccc2c1OC(C)=O (stereo not given)  0.6 µM
31. COc1ccc2nccc(NCC3(O)CCN(CCc4ccc5c(c4)OCCO5)CC3)c2n1  0.6 µM
32. O=C(Nc1cccc(F)c1)NC1CCN(c2ccnc3cc(Cl)ccc23)CC1  0.61 µM
33. CC(=O)Nc1sc(C)c(C)c1CN1CCc2ccccc2C1  0.62 µM
34. Cn1c(NC(=O)C2CCC(CNC(=O)c3ccc(O)c(-c4ccc(Cl)c(Cl)c4)c3)CC2)nc2ccccc21 (stereo not given)  0.65 µM
35. O=C(NC1CCCC1)c1cc2c(=O)n3ccccc3nc2nc1NCCc1ccccc1  0.65 µM
36. Cc1[nH]c2ccccc2c1C1=CCN(CCN2CCCc3c(Br)cccc3C2=O)CC1  0.66 µM
37. COc1ccc2c(NN=Cc3ccc(N(C)C)cc3)ccnc2c1  0.66 µM
38. COc1ccc(F)cc1-c1ccccc1CNC(=O)CN(C)S(=O)(=O)c1cc(C)cc(Cl)c1C  0.66 µM
39. CO/C(=C\C=C\c1cc2cc(Cl)c(Cl)cc2[nH]1)C(=O)NCCCN1CCN(c2ccc(OC)cc2)CC1  0.7 µM
40. CC1(C)CCCN(C(=O)c2cccc(-n3nc(-c4ccc(Cl)cc4)cc3N)c2)C1  0.71 µM
41. CC(Cc1ccc(Cl)cc1)Nc1nc(NC2CCCC2)nc(N2CCC(C#N)(c3ccccc3)CC2)n1 (stereo not given)  0.71 µM
42. O=C(/C=C/c1ccc(Cl)c(Cl)c1)NC1CCC(CN2CC[C@H](c3c[nH]c4ccccc34)[C@@H](O)C2)CC1 (stereo not given in full)  0.72 µM
43. CNCc1cccc2[nH]c(-c3csc(Cc4cc(Cl)ccc4OCC(C)C)n3)nc12  0.72 µM
44. Oc1cccc(/C=N/Nc2ccnc3cc(Cl)ccc23)c1  0.73 µM
45. Clc1ccc(-c2ccc(C=NNc3nc(Nc4ccccc4)nc(Nc4ccccc4)n3)o2)cc1Cl  0.74 µM
46. COc1cc(C(=O)Nc2nc3ccccc3[nH]2)ccc1OCC(=O)Nc1cccc(C(F)(F)F)c1  0.74 µM
47. COCCNCc1cccc(C#Cc2cc3ncnc(Nc4ccc(OCc5cccc(F)c5)c(Cl)c4)c3s2)n1  0.74 µM
48. Cc1ccc(OC2CCN(CCCCC3(C)C(=O)Nc4ccccc43)CC2)cc1 (stereo not given)  0.74 µM
49. CO/C(=C\C=C\c1cc2cc(Cl)c(Cl)cc2[nH]1)C(=O)NCCCN1CCCC[C@@H]1C  0.75 µM
50. CCC(NC(=O)c1ccccc1NC(=O)c1ccc(C)cc1)C(=O)OC (stereo not given)  0.76 µM
51. O=C(N[C@@H](CC1CCCCC1)C(=O)NCCN1CCCC1)c1ccc(O)c(-c2cccc(C(F)(F)F)c2)c1  0.76 µM
52. CO/C(=C\C=C\c1cc2cc(Cl)c(Cl)cc2[nH]1)C(=O)Nc1ccc(NCCN(C)C)nc1  0.77 µM
53. CN1CCN(Cc2cc3cc(NC(=O)/C=C/c4ccc(Cl)cc4)ccc3s2)CC1  0.77 µM
54. O=C(N[C@H]1CCN(Cc2ccc(OCCCN3CCCCC3)cc2)C1)c1ccc(Oc2ccccc2)cc1  0.78 µM
55. Cc1nc2nc(N)nc(N)c2c(C)c1Cc1cccs1  0.78 µM
56. COC(=O)c1noc(C)c1I  0.8 µM
57. Cc1[nH]c(C)c(-c2ccc(C(=O)c3ccc(Cl)cc3)cc2)c(=O)c1Br  0.81 µM
58. COc1ccc2ncc(C#N)c(CCN3[C@@H]4CC[C@H]3CC(NCc3ccc5c(n3)NC(=O)CS5)C4)c2c1 (stereo not given in full)  0.81 µM
59. CC(C)(C)OC(=O)Nc1cccc(-c2csc(N=C(N)N)n2)c1  0.84 µM
60. CCCCCCn1c(Sc2ccc(C#N)c([N+](=O)[O-])c2)nnc1-c1ccc(OC)cc1  0.85 µM
61. COc1ccc(CC2(CO)CCN(Cc3ccc(O)c(Cl)c3)CC2)cc1  0.86 µM
62. CC(C)CCn1c(Sc2ccc(C#N)c([N+](=O)[O-])c2)nnc1-c1ccc(Cl)cc1  0.87 µM
63. COc1ccc(NC(=O)Nc2ccc(-c3ccccc3)cc2Cl)cc1N1CCN(C)CC1  0.87 µM
64. CCc1cccc2c(C#N)cn(CC(=O)NCCc3ccccc3)c12  0.89 µM
65. Cc1cc(OCC2CCN(c3ncc(C(=O)Nc4ccccc4)cc3Cl)CC2)ccc1F  0.9 µM
66. C[C@H](NC(=O)c1c(CN2CCC(N3CCCCC3=O)CC2)c(-c2cccs2)nc2ccccc12)C1CCCCC1  0.9 µM
67. Cc1ccc2[nH]c3c(c2c1)CC(C(=O)NCCC(C)C)NC31CCN(Cc2ccccc2)CC1 (stereo not given)  0.93 µM
68. CN1CCCC1CCNCc1cccc(-c2cnc(N3CCCC(C)(C)C3)nc2)c1 (stereo not given)  0.93 µM
69. Cc1ccc(CCOCCCCCNCC(O)c2cc(Cl)c(N)c(Cl)c2)cc1 (stereo not given)  0.95 µM
70. O=C(NC1CCCCC1)N(Cc1cccc(-c2ccc(CNC3CCCC3)cc2)c1)C1CCN(Cc2ccccc2)CC1  0.95 µM
71. O=C1Nc2cccc3c2C1(CCCN1CCC(c2c[nH]c4cc(C(F)(F)F)ccc24)CC1)CCC3 (stereo not given)  0.96 µM
72. CCc1ccccc1N1CCN(CCCCNC(=O)c2ccc(NC(=O)c3ccc(Cl)cc3)cc2)CC1  0.96 µM
73. O=C(C=Cc1ccccc1O)N1CCC(CN2CCC(c3c[nH]c4ccccc34)CC2)CC1  0.96 µM
74. CCCO[C@H](C(=O)OC)[C@@H](CC1Cc2ccccc2C1)C(=O)NCCC1=CCCCC1  0.97 µM
75. CC(C)(c1ccccc1)c1ccc(O)c(CN2CCOCC2)c1  0.98 µM
76. O=C(c1ccc([N+](=O)[O-])o1)N1CCN(c2nc3c(Cl)cccc3s2)CC1  0.98 µM
77. CCCCC/C=C/C(=O)NC1CCC(CN2CCC(c3c[nH]c4ccccc34)CC2)CC1 (stereo not given)  0.98 µM
78. COc1ccc(Nc2nccc(N3CCC(NC(=O)c4cccc(NC(C)=O)c4)C3)n2)cc1 (stereo not given)  0.99 µM
79. Cc1cccc2[nH]c(-c3ccc(-c4ccc(CNCCCNS(C)(=O)=O)cc4)s3)nc12  1 µM
80. CC(=O)c1cccc(NC(=O)N2CCCN(CCCCCNC(=O)/C=C/c3ccc(Cl)c(Cl)c3)CC2)c1  1.01 µM
81. COc1cc(Nc2ncc3c(C)nc(-c4cc5ccccc5[nH]4)n3n2)cc(OC)c1OC  1.02 µM
82. COc1ccc2c(c1C1CCN(CCCCNC(=O)c3ccc(-c4ccc(Cl)cn4)cc3)CC1)CCCC2  1.02 µM
83. O=S(=O)(c1cccc(F)c1)c1ccc(Nc2ncnc3cc(Br)sc23)cc1Cl  1.03 µM
84. C=CCc1cc(Cc2cnc(N)nc2N)c2ccc(C)nc2c1O  1.04 µM
85. O=C(CNC(=O)c1ccc(O)cc1)Nc1cccc(-c2cccc(-c3nc4ccc(C(F)(F)F)cc4[nH]3)c2)c1  1.04 µM
86. COC(=O)C(NC(=O)NC1CCN(c2ccnc(Nc3ccc(F)cc3)n2)C1)c1ccccc1 (stereo not given)  1.05 µM
87. O=C(CC1CCCC1)N(Cc1ccc(-c2ccc(CNC3Cc4ccccc4C3)cc2)cc1)CC1CCCCN1 (stereo not given)  1.06 µM
88. COc1ccc(C(=O)Nc2cc(Br)c3c(c2)CNCC3)cc1C(F)(F)F  1.07 µM
89. O=C(Nc1cc(F)cc(F)c1)N[C@H]1CCN(CCCCCNC(=O)[C@@H]2C[C@H]2c2ccc(Cl)c(Cl)c2)C1  1.08 µM
90. CN(C)Cc1ccc(O)c(-c2ccc(C(C)(C)C)cc2)n1  1.08 µM
91. Cc1cc(-c2cccc(CNCCc3ccc(Cl)cc3)c2)cnc1N  1.1 µM
92. O=S(=O)(Nc1cccc(CCN2CCC(N3CCCCC3)CC2)c1)c1ccc(-c2ccccc2)cc1  1.12 µM
93. CCc1cc2c(cc1CC)CC(NC[C@@H](O)c1ccc(O)c3[nH]c(=O)ccc13)C2  1.12 µM
94. CCN(CC)CCn1c(=N)n(CC(=O)c2ccc(-c3ccccc3)cc2)c2ccccc21  1.14 µM
95. CCOc1ccc(Nc2nc(N)c3ccccc3n2)cc1  1.15 µM
96. COc1cccc(CNC(=O)c2cnc(N3CCN(c4ccncc4)CC3)c(Cl)c2)c1  1.15 µM
97. FC(F)(F)CNc1nc(Nc2ccc3ncccc3c2)nc2[nH]ccc12  1.24 µM
98. c1ccc(CN2CCC(NCc3cccc(-c4cncc5ccccc45)c3)CC2)cc1  1.36 µM
99. Oc1c(CN2CCCC(C(F)(F)F)C2)cc(Cl)c2ccccc12 (stereo not given)  1.57 µM

For `O=C(C=Cc1cccc(Cl)c1Cl)NC1CCC(CN2CCC(c3c[nH]c4ccccc34)CC2)CC1` (stereo not given), the IC50 was 0.68 µM and 1.14 µM.
